Publication PMC4257840 (Journal of Medicinal Chemistry, 2014)

Experiments:
Human cathepsin E = target: T1, Human cathepsin E (Homo sapiens, UniProt P14091); assay: Protease counter-screening: Cathepsin E; type: biochemical
T1 construct: host or cells: NS0 murine myeloma cell line
Description: (§1) Appendix 7. Protease Counter -Screening
(§2) Protease counter-screeni ng was performed using the methods described below. Initial screening was conducted in duplicate using a single test substance concentration of 10 µ M .
(§3) Additional assays were conducted in replicate for selected pairin gs of test s ubstance and enz yme in order to enable the determination of IC50 values using conventional procedures.
(§4) Determination of K i was made using the Batch K i program (Biokin Ltd, Pullman, WA) to derive values from the Morrison equation: […]
(§5) Where [E ] is the active enz yme concentration, Kiapp is the apparent inhibition const ant, v 0 is the control velocit y in the absence of inhibitors, vb is the background velocity, v is the initial reaction velocit y in the presence of inhibitor, and I is the inhibitor concentration.Thence:
(§6) Where [S ] is the substrate concentration and KM is the Michealis constant.
(§7) Caspase 1: Activity against human recombinant caspase 1 expressed in E. coli was tested using Ac-YVAD- AMC as the substrate. Test compound or vehicle was pre- incubated with 600 […]
(§8) Cathep sin D: Tests were performed using enz ym e purified from human li ver. Test compound or vehicle was pre- incubated with 190 mU/mL enz yme in modified acetate buffer pH 4.0 for 15 min at 37 °C. […]
(§9) The amount of MCA-P LG formed was measured spectrofluorimetricall y at 340 nm/400 nm. […]

Cathepsin D = target: T2, Cathepsin D (Homo sapiens, UniProt P07339); assay: Protease counter-screening: Cathepsin D; type: biochemical
T2 construct: purified from human li ver; from tissue; host or cells: human liver
T2 sequence (P07339 65-412): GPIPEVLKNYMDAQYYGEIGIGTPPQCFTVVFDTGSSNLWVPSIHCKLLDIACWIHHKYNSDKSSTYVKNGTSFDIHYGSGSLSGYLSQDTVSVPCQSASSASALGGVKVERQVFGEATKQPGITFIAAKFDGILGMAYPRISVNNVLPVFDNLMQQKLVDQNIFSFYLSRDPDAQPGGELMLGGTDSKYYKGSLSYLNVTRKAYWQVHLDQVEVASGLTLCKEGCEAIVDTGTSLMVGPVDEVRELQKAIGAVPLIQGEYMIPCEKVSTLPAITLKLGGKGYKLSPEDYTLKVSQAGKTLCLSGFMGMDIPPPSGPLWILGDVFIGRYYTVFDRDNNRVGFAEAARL
Description: as §1, §2, §3, §4, §5, §6, §7, §8, §9

[1] = target: T3, Cathepsin C from bovine spleen (Bos taurus, UniProt Q3ZCJ8); assay: Protease counter-screening: Cathepsin C; type: biochemical
T3 construct: Cathepsin C from bovine spleen was used as the source of; from tissue; host or cells: bovine spleen
T3 sequence (Q3ZCJ8 25-463): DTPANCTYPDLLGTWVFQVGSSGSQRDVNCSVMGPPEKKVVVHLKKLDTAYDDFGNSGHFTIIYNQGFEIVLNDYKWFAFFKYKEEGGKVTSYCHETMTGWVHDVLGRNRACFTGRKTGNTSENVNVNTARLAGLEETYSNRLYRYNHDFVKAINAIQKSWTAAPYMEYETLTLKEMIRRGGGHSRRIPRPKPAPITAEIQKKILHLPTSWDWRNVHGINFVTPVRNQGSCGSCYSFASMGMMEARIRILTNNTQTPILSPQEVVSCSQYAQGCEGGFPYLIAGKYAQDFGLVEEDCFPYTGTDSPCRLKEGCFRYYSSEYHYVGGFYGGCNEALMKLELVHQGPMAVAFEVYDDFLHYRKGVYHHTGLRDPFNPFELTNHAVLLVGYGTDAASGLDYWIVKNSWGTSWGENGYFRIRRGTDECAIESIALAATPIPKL
Description: as §1, §2, §3, §4, §5
Where [S ] is the substrate concentration and KM is the Michealis constant. […]
by addition of 50 µM Ac-DEVD-AMC for another 60 min incubation period. The amount of AMC formed was determined fluorimetricall y (excitation 360 nm/emission 465 nm). […]
by addition of 25 µM Ac-LEH D-A FC for another 60 min incubation period. The amount of amino-4- trifluorometh ylcoumarin (AFC) formed determined fluorimetrically (400nm/ 510nm).
Cathepsin C: Cathepsin C from bovine spleen was used as the source of enz yme. […] T he amount of AMC product formed was read spectrofluorimetrically

[2] = Measurement of LogD7.4 (n-octanol/PBS shake); type: physicochemical; conditions: single determination, n-octanol/PBS pH 7.4; read-out: Log D7.4

T1 sequence (P14091 54-396): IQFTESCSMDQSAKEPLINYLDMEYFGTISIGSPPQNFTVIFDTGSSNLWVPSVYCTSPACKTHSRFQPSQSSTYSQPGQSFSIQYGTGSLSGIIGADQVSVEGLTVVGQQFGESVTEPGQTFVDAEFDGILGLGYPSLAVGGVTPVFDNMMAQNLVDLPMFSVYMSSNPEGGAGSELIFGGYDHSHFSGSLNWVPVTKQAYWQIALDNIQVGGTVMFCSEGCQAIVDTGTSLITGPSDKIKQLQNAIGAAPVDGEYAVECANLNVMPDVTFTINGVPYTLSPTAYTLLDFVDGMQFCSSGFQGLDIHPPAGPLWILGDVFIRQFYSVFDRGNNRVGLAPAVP

Molecule `CC(C)[C@H](NC(=O)[C@H](C)NC(=O)[C@@H](NC(=O)c1ccccc1)C(C)(C)C)C(=O)C(=O)NCc1ccccc1` [Compound 38, N-{(S)-1-[(S)-1-((S)-1-Benzylaminooxalyl-2-methyl-propylcarbamoyl)-ethylcarbamoyl]-2,2-dimethyl-propyl}-benzamide] has an inhibition at 10 µM (Human cathepsin E) of 23%, an inhibition at 10 µM (Cathepsin D) of 2% and an inhibition at 10 µM [1] of 0%. The logD at 1.5 h [2] was 3.2.
